Values of other authors as cited in patent publication US20070212388A1, “COMPOSITIONS COMPRISING POROUS ARTICLES AND USES IN IMPLANTABLE MEDICAL DEVICES” (Sahajanand Medical Technologies Pvt. Ltd., priority 2006, published 2007).

Conditions: for solubility in water: general statement, no test described

solubility in water | water solubility relative to genistein (compared with genistein) | SMILES
practically insoluble in water | – | O=c1c(-c2ccc(O)cc2)coc2cc(O)cc(O)c12 [Genistein, 5,7-dihydroxy-3-(4-hydroxyphenyl)-4H-1-benzopyran-4-one]
– | greater water solubility than genistein | O=c1c(-c2ccc(O)cc2)coc2cc(O[C@@H]3O[C@H](CO)[C@@H](O)[C@H](O)[C@H]3O)cc(O)c12 [Genistin]
practically insoluble in water | – | O=c1c(O)c(-c2ccc(O)c(O)c2)oc2cc(O)cc(O)c12 [Quercetin, 2-(3,4-dihydroxyphenyl)-3,5,7-trihydroxy-4H-1-benzopyran-4-one]
